Drawing on PubChem BioAssay (NCI), this text covers TGI for 16 molecules.

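Following 48 hours of exposure in 96-well plates, responses at five concentrations were used to interpolate endpoints linearly. The concentration for full growth arrest is given as TGI.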 A value given as a limit tells only on which side of the number the result lay.

What all share (experiment): DTP human tumour cell line panel, 48 h
Assay [1] relates to HCT-116 colon.
In assay [2] the test system is HOP-92 NSCLC.
Assay [3] relates to OVCAR-4 ovarian.
Assay [4] concerns OVCAR-8 ovarian.
In assay [5] the test system is SNB-19 CNS.
Assay [6] deals with TK-10 renal.
Assay [7] has as its system U251 CNS.
The test system of assay [8] is UO-31 renal.
The test system of assay [9] is HS 578T breast.
Assay [10] relates to MCF7 breast.

For orientation: TGI means the concentration giving total growth inhibition. Lower therefore signals greater sensitivity of the cells. As to `CC(=O)OCC1OC(n2cc([N+](=O)[O-])c(=O)[nH]c2=O)C(OC(C)=O)C(OC(C)=O)C1OC(C)=O` (stereo not drawn), the TGI in assay [1], in [2], in assay [3], in [4], in [5] and in assay [6] was greater than 100 µM throughout. In addition, the TGI in assay [7] and in [8] was greater than 100 µM each time.

As to `CSc1cc(Cl)c(C)cc1S(=O)(=O)NC(=O)NNc1ccc(Cl)cc1`, the TGI in [1], in assay [9], in assay [10], in [3], in assay [4] and in assay [5] was greater than 100 µM in each case. The same molecule gave a TGI in assay [7] greater than 100 µM.

Take `CC(=O)N(C(C)=O)C1=C2c3ccccc3N(S(=O)(=O)c3ccccc3)C2n2c(=O)n(-c3ccccc3)c(=O)n2C1` (stereo not drawn): the TGI was greater than 100 µM in assay [1]; 73.9 µM in assay [2]; greater than 100 µM in assay [4]; greater than 100 µM in assay [5]; greater than 100 µM in assay [6]; greater than 100 µM in [7]. In addition, the TGI in assay [8] was greater than 100 µM.

With `CCOC(=O)c1c(-c2ccc(OC)cc2)c(C#N)c(=S)n(C2OC(COC(C)=O)C(OC(C)=O)C(OC(C)=O)C2OC(C)=O)c1C` (stereo not drawn), the TGI in [1] is greater than 100 µM; in [2], 83.4 µM; in assay [10], greater than 100 µM; in assay [3] it was 92.2 µM; in assay [4], greater than 100 µM; in assay [5], greater than 100 µM. Also, the TGI was greater than 100 µM in [6], greater than 100 µM in assay [7] and 6.02 µM in assay [8].

Regarding `O=C1c2cc3c(cc2CC1Br)CCC3` (stereo not drawn), the TGI in assay [1] is 3.03 µM; in assay [9], greater than 100 µM; in [3], 3.86 µM; in assay [4] it was 4.04 µM; in [5] it was 27.6 µM; in assay [6], 8.77 µM. The TGI came to 8.09 µM in [7] and 22.4 µM in assay [8].

Turning to `C=CCNC(=S)/N=C/c1c(O)c2ccccc2oc1=O`, the TGI in [1], in [2], in assay [3], in assay [4], in assay [5] and in assay [6] was greater than 100 µM throughout. Besides, the TGI in [7] and in assay [8] was greater than 100 µM in each case.

`CC(C)(C)NC(=O)/C(=C\Sc1ccccc1)c1ccc2c(c1)OCO2`: the TGI in [1] was 65.8 µM; in assay [2], 55.1 µM; in assay [10], 60.6 µM; in assay [3], greater than 100 µM; in assay [4], greater than 100 µM; in assay [5] it was greater than 100 µM. Besides, the values for the TGI in assay [6], in assay [7] and in assay [8] were greater than 100 µM, 98.6 µM and greater than 100 µM, respectively.

For `Cc1cn(C2OC(C)(CO)C(O)C2O)c(=O)[nH]c1=O` (stereo not drawn), the TGI in assay [1], in [2], in assay [3], in [4], in assay [5] and in assay [6] was greater than 100 µM throughout. Further, the TGI in [7] and in assay [8] was greater than 100 µM throughout.

In the case of `N#C/C(=C\c1cc(Br)c(O)c(Br)c1)c1cccnc1`, the TGI was greater than 100 µM in [1]; greater than 100 µM in assay [10]; greater than 100 µM in assay [3]; greater than 100 µM in assay [4]; greater than 100 µM in assay [5]; 87.2 µM in assay [6]. Also, the TGI in assay [7] was 35.6 µM; in assay [8] it was 58.1 µM.

`N=S(c1ccccc1)c1ccccc1[N+](=O)[O-]` (stereo not drawn): the TGI stood at 31.6 µM in assay [1]; 28.4 µM in [3]; 51.5 µM in assay [4]; 35.2 µM in assay [5]; 34.8 µM in assay [6]; 31.2 µM in assay [7]. In [8], this molecule came in with a total growth inhibition concentration (TGI) of 29.5 µM.

For the molecule `O=c1c2ccccc2nc2[nH][nH]c(=S)n12`, the TGI in assay [1], in assay [2], in assay [9], in assay [10], in assay [4] and in [5] was greater than 100 µM throughout. In addition, the TGI in [6], in assay [7] and in [8] was greater than 100 µM throughout.

`O=[N+]([O-])/C(C(Cl)=C(Cl)Cl)=C(\Nc1cccc2cccnc12)SCc1ccccc1`: the TGI in assay [1] is 36.1 µM; in [9], 19.3 µM; in assay [10] it was 36.5 µM; in assay [3], 46 µM; in [5], 42 µM; in [7], 33.2 µM. For the same molecule, the TGI in assay [8] was 38.1 µM.

Consider `c1ccc2sc(SCSc3nc4ccccc4s3)nc2c1`, for which the TGI in [1], in assay [2], in assay [9], in [3], in assay [4] and in assay [5] was greater than 100 µM throughout. Also, the TGI in [6], in assay [7] and in assay [8] was greater than 100 µM in each case.

As for `Cc1cc(=O)c2c([nH]1)NS(=O)(=O)NC2=O`, the TGI in assay [1], in [2], in assay [3], in assay [4], in assay [5] and in assay [6] was greater than 100 µM each time. The TGI in assay [8] is greater than 100 µM.

Take `CCOC(=O)NC(=S)NN(C)C1=NCC(C)(C)S1`: the TGI in assay [1], in assay [2], in [9], in assay [10], in assay [5] and in assay [6] was greater than 100 µM throughout. For the same molecule, the TGI in [7] and in assay [8] was greater than 100 µM throughout.

On to `O=C(/C=C/c1ccsc1)c1ccsc1`, for which the TGI is 30.3 µM in assay [1]; greater than 100 µM in assay [9]; 32.4 µM in [10]; greater than 100 µM in assay [3]; 85.6 µM in assay [4]; 47.7 µM in [5]. Moreover, the figures for the TGI in assay [6], in assay [7] and in assay [8] were 74.4 µM, 37.7 µM and 28.7 µM, respectively.
